Assay results from patent US9890149B2 (NuBridge BioSciences, priority 2015, dated 2018).
Structures can show the parent of a compound that is named as a salt.

Molecular target: T1, ΔF508 mutant CFTR (Homo sapiens, UniProt P13569, DEL508-508)
T1 construct: expressed in transfected cells; host or cells: Fischer rat thyroid (FRT) cells
Experiment: Fluorescence Assay (halide-sensitive YFP, iodide influx) for ΔF508 mutant CFTR activity
Type: cell-based
Conditions: FRT cells expressing ΔF508-CFTR and YFP-H148Q/I152L, incubated 27° C. 20-24 h; forskolin (20 μM) and test compounds (20 μM) for 20 min; rate of fluorescence quenching by I−, normalized to forskolin alone
Text: The ΔF508 mutant CFTR activities of the CFTR modulators are detected using the Fluorescence Assay developed by Pedemonte (Pedemonte N., et al., Antihypertensive 1,4-dihydropyridines as correctors of the cystic fibrosis transmembrane conductance regulator channel gating defect caused by cystic fibrosis mutations, Mol. Pharmacol., 2005, 68, 1736-1746).
Fischer rat thyroid (FRT) cells, stably transfected with ΔF508 were retransfected with the YFP-H148Q/I152L fluorescent protein. The cells were plated (100,000 cells/well) on black 96-well microplates with clear plastic bottom (Corning Life Sciences, Acton, Mass.).
The 96-well microplates containing FRT cells expressing F508-CFTR and the halide-sensitive YFP were incubated at 27° C. for 20 to 24 h to allow rescue of the mutant protein to the plasma membrane. After incubation, cells were washed with PBS (containing 137 mM NaCl, 2.7 mM KCl, 8.1 mM Na2HPO4, 1.5 mM KH2PO4, 1 mM CaCl2, and 0.5 mM MgCl2) and stimulated for 20 min with forskolin (20 μM) and test compounds (20 μM) in a final volume of […] Microplates were then transferred to a microplate reader for CFTR activity determination.

T1 sequence (P13569 with tags, fused parts or gaps DEL508-508): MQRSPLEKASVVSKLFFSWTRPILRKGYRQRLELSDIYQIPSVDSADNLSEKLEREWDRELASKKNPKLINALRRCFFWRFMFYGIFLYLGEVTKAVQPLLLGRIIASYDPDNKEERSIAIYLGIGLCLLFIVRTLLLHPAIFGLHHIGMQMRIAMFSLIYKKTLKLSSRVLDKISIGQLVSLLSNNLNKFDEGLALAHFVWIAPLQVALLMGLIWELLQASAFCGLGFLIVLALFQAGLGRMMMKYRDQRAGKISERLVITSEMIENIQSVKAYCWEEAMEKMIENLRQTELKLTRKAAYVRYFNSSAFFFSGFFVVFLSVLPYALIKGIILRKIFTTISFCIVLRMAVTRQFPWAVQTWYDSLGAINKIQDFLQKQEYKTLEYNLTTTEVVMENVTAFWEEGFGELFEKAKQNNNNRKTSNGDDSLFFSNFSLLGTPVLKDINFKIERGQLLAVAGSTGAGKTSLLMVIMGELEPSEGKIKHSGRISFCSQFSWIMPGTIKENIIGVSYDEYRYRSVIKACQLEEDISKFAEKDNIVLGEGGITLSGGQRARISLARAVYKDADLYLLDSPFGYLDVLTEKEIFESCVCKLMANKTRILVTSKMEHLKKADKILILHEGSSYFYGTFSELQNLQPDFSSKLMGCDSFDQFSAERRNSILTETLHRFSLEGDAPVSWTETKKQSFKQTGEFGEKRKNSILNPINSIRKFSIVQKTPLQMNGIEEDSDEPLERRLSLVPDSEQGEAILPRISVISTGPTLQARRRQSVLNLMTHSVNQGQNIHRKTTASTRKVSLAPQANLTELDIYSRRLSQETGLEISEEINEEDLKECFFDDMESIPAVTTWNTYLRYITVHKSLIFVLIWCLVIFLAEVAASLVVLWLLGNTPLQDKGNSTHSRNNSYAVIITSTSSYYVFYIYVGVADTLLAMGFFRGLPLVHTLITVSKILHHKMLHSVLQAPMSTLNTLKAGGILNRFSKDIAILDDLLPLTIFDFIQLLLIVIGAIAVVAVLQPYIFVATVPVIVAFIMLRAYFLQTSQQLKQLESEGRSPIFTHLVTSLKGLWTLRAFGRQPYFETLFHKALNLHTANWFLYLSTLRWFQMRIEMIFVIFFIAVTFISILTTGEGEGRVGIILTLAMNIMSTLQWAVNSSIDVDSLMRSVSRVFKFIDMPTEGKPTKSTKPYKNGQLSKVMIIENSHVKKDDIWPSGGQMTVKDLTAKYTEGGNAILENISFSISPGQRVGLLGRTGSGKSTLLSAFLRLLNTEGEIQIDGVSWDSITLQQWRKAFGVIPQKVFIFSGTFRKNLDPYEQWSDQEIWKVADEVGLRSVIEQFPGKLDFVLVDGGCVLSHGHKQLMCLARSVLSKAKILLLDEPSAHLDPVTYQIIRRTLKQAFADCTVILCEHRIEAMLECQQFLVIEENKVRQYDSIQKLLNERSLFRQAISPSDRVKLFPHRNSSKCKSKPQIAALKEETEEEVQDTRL

Going from `Cl.O=C(Nc1cnsc1OCC1CCNCC1)c1ccc(F)c(-c2c(F)cccc2F)n1` [Example 1, 6-(2,6-difluorophenyl)-5-fluoro-N-(5-(piperidin-4-ylmethoxy)isothiazol-4-yl)picolinamide hydrochloride] to `Cl.O=C(Nc1cnsc1OCC1CCNC1)c1ccc(F)c(-c2c(F)cccc2F)n1` (stereo not shown) [Example 8, 6-(2,6-difluorophenyl)-5-fluoro-N-(5-(pyrrolidin-3-ylmethoxy)isothiazol-4-yl)picolinamide hydrochloride], the “CFTR Activity” value falls from 0.9 to 0.7.

Compared with `Cl.O=C(Nc1cnsc1OCC1CNC1)c1ccc(F)c(-c2c(F)cccc2F)n1` [Example 2, N-(5-(azetidin-3-ylmethoxy)isothiazol-4-yl)-6-(2,6-difluorophenyl)-5-fluoropicolinamide hydrochloride], `Cl.O=C(Nc1cnsc1OCC1CCCNC1)c1ccc(F)c(-c2c(F)cccc2F)n1` (stereo not shown) [Example 7, 6-(2,6-difluorophenyl)-5-fluoro-N-(5-(piperidin-3-ylmethoxy)isothiazol-4-yl)picolinamide hydrochloride] is higher in “CFTR Activity” value: 0.2 for the first, 0.9 for the second.

First: Cl.O=C(Nc1cnsc1OC1CCNCC1)c1ccc(F)c(-c2c(F)cccc2F)n1 [Example 3, 6-(2,6-difluorophenyl)-5-fluoro-N-(5-(piperidin-4-yloxy)isothiazol-4-yl)picolinamide hydrochloride]
Second: Cl.O=C(Nc1cnsc1OC1CCCNCC1)c1ccc(F)c(-c2c(F)cccc2F)n1 (stereo not shown) [Example 6, N-(5-(azepan-4-yloxy)isothiazol-4-yl)-6-(2,6-difluorophenyl)-5-fluoropicolinamide hydrochloride]
The “CFTR Activity” value of the first is lower: 1.3 for the first, 1.4 for the second.

Going from `Cl.O=C(Nc1cnsc1OC1CCNC1)c1ccc(F)c(-c2c(F)cccc2F)n1` (stereo not shown) [Example 4, 6-(2,6-difluorophenyl)-5-fluoro-N-(5-(pyrrolidin-3-yloxy)isothiazol-4-yl)picolinamide hydrochloride] to `Cl.O=C(Nc1cnsc1OC1CCCNC1)c1ccc(F)c(-c2c(F)cccc2F)n1` (stereo not shown) [Example 5, 6-(2,6-difluorophenyl)-5-fluoro-N-(5-(piperidin-3-yloxy)isothiazol-4-yl)picolinamide hydrochloride], the “CFTR Activity” value falls from 0.8 to 0.5.

`Cl.O=C(Nc1cnsc1OC1CNC1)c1ccc(F)c(-c2c(F)cccc2F)n1` [Example 9, N-(5-(azetidin-3-yloxy)isothiazol-4-yl)-6-(2,6-difluorophenyl)-5-fluoropicolinamide hydrochloride] and `Cl.Nc1cc(F)c(-c2c(F)cccc2F)nc1C(=O)Nc1cnsc1OC1CNC1` [Example 31, 3-amino-N-(5-(azetidin-3-yloxy)isothiazol-4-yl)-6-(2,6-difluorophenyl)-5-fluoropicolinamide hydrochloride] are the same in “CFTR Activity” value: 0.1 for the first, 0.1 for the second.

Going from `Cl.N[C@H]1CC[C@H](Oc2sncc2NC(=O)c2ccc(F)c(-c3c(F)cccc3F)n2)CC1` [Example 10, N-(5-(((1r,4r)-4-aminocyclohexyl)oxy)isothiazol-4-yl)-6-(2,6-difluorophenyl)-5-fluoropicolinamide hydrochloride] to `Cl.NC1CCCC(Oc2sncc2NC(=O)c2ccc(F)c(-c3c(F)cccc3F)n2)C1` (stereo not shown) [Example 11, N-(5-((3-aminocyclohexyl)oxy)isothiazol-4-yl)-6-(2,6-difluorophenyl)-5-fluoropicolinamide hydrochloride], the “CFTR Activity” value rises from 1 to 1.1.

`Cl.NCCCOc1sncc1NC(=O)c1ccc(F)c(-c2c(F)cccc2F)n1` [Example 12, N-(5-(3-aminopropoxy)isothiazol-4-yl)-6-(2,6-difluorophenyl)-5-fluoropicolinamide hydrochloride] and `Cl.NCCCCOc1sncc1NC(=O)c1ccc(F)c(-c2c(F)cccc2F)n1` [Example 15, N-(5-(4-aminobutoxy)isothiazol-4-yl)-6-(2,6-difluorophenyl)-5-fluoropicolinamide hydrochloride] are the same in “CFTR Activity” value: 0.7 for the first, 0.7 for the second.

`CNCCCOc1sncc1NC(=O)c1ccc(F)c(-c2c(F)cccc2F)n1.Cl` [Example 13, 6-(2,6-difluorophenyl)-5-fluoro-N-(5-(3-(methylamino)propoxy)isothiazol-4-yl)picolinamide hydrochloride] and `CNCCCCOc1sncc1NC(=O)c1ccc(F)c(-c2c(F)cccc2F)n1.Cl` [Example 16, 6-(2,6-difluorophenyl)-5-fluoro-N-(5-(4-(methylamino)butoxy)isothiazol-4-yl)picolinamide hydrochloride] are the same in “CFTR Activity” value: 0.5 for the first, 0.5 for the second.

Compared with `CN(C)CCCOc1sncc1NC(=O)c1ccc(F)c(-c2c(F)cccc2F)n1.Cl` [Example 14, 6-(2,6-difluorophenyl)-N-(5-(3-(dimethylamino)propoxy)isothiazol-4-yl)-5-fluoropicolinamide hydrochloride], `O=C(Nc1cnsc1OCCCO)c1ccc(F)c(-c2c(F)cccc2F)n1` [Example 17, 6-(2,6-difluorophenyl)-5-fluoro-N-(5-(3-hydroxypropoxy)isothiazol-4-yl)picolinamide] is lower in “CFTR Activity” value: 0.3 for the first, 0.1 for the second.

Compared with `CC(O)CCOc1sncc1NC(=O)c1ccc(F)c(-c2c(F)cccc2F)n1` (stereo not shown) [Example 18, 6-(2,6-difluorophenyl)-5-fluoro-N-(5-(3-hydroxybutoxy)isothiazol-4-yl)picolinamide], `O=C(Nc1cnsc1OCCC(O)CO)c1ccc(F)c(-c2c(F)cccc2F)n1` (stereo not shown) [Example 21, 6-(2,6-difluorophenyl)-N-(5-(3,4-dihydroxybutoxy)isothiazol-4-yl)-5-fluoropicolinamide] is higher in “CFTR Activity” value: 0.12 for the first, 0.5 for the second.

`O=C(Nc1cnsc1OCCCCO)c1ccc(F)c(-c2c(F)cccc2F)n1` [Example 19, 6-(2,6-difluorophenyl)-5-fluoro-N-(5-(4-hydroxybutoxy)isothiazol-4-yl)picolinamide] and `CC(C)(O)CCCOc1sncc1NC(=O)c1ccc(F)c(-c2c(F)cccc2F)n1` [Example 20, 6-(2,6-difluorophenyl)-5-fluoro-N-(5-((4-hydroxy-4-methylpentyl)oxy)isothiazol-4-yl)picolinamide] are the same in “CFTR Activity” value: 0.1 for the first, 0.1 for the second.

First: O=C(Nc1cnsc1OCC1CCOCC1)c1ccc(F)c(-c2c(F)cccc2F)n1 [Example 22, 6-(2,6-difluorophenyl)-5-fluoro-N-(5-((tetrahydro-2H-pyran-4-yl)methoxy)isothiazol-4-yl)picolinamide]
Second: Cl.NCC(CCl)COc1sncc1NC(=O)c1ccc(F)c(-c2c(F)cccc2F)n1 (stereo not shown) [Example 30, N-(5-(3-amino-2-(chloromethyl)propoxy)isothiazol-4-yl)-6-(2,6-difluorophenyl)-5-fluoropicolinamide hydrochloride]
The “CFTR Activity” value of the first is lower: 0.3 for the first, 1.4 for the second.

Compared with `Cl.Nc1cc(F)c(-c2c(F)cccc2F)nc1C(=O)Nc1cnsc1OCC1CCNCC1` [Example 23, 3-amino-6-(2,6-difluorophenyl)-5-fluoro-N-(5-(piperidin-4-ylmethoxy)isothiazol-4-yl)picolinamide hydrochloride], `Cl.Nc1cc(F)c(-c2c(F)cccc2F)nc1C(=O)Nc1cnsc1OCC1CCNC1` (stereo not shown) [Example 28, 3-amino-6-(2,6-difluorophenyl)-5-fluoro-N-(5-(pyrrolidin-3-ylmethoxy)isothiazol-4-yl)picolinamide hydrochloride] is lower in “CFTR Activity” value: 2.2 for the first, 1.7 for the second.

Compared with `Cl.Nc1cc(F)c(-c2c(F)cccc2F)nc1C(=O)Nc1cnsc1OC1CCNC1` (stereo not shown) [Example 24, 3-amino-6-(2,6-difluorophenyl)-5-fluoro-N-(5-(pyrrolidin-3-yloxy)isothiazol-4-yl)picolinamide hydrochloride], `Cl.Nc1cc(F)c(-c2c(F)cccc2F)nc1C(=O)Nc1cnsc1OC1CCNCC1` [Example 25, 3-amino-6-(2,6-difluorophenyl)-5-fluoro-N-(5-(piperidin-4-yloxy)isothiazol-4-yl)picolinamide hydrochloride] is higher in “CFTR Activity” value: 1.9 for the first, 2.5 for the second.

First: Cl.Nc1cc(F)c(-c2c(F)cccc2F)nc1C(=O)Nc1cnsc1OC1CCCNCC1 (stereo not shown) [Example 26, 3-amino-N-(5-(azepan-4-yloxy)isothiazol-4-yl)-6-(2,6-difluorophenyl)-5-fluoropicolinamide hydrochloride]
Second: Cl.Nc1cc(F)c(-c2c(F)cccc2F)nc1C(=O)Nc1cnsc1O[C@H]1CC[C@H](N)CC1 [Example 27, 3-amino-N-(5-(((1r,4r)-4-aminocyclohexyl)oxy)isothiazol-4-yl)-6-(2,6-difluorophenyl)-5-fluoropicolinamide hydrochloride]
The “CFTR Activity” value of the first is higher: 3.1 for the first, 2.8 for the second.

In the case of `NCC(CCl)Oc1sncc1NC(=O)c1ccc(F)c(-c2c(F)cccc2F)n1` (stereo not shown) [Example 29, N-(5-((1-amino-3-chloropropan-2-yl)oxy)isothiazol-4-yl)-6-(2,6-difluorophenyl)-5-fluoropicolinamide hydrochloride], the “CFTR Activity” value is reported as 1.4.
